For orientation: viability means a read-out of living cells in per cent, often relative to untreated cells.

This data set can be described thus: in vitro. As to conditions: human, hela cells, % viability.
On to `O=C(CNC(=S)NC(=O)c1ccc(Br)o1)c1ccccc1` [CBK265310], for which the viability at 28.5 h, 10 µM was found to be 98%. With `C(=N\c1ccc(-c2nc3ccc(/N=C/c4ccncc4)cc3[nH]2)cc1)/c1ccncc1` [CBK261681] the figure was 89.8%. For the compound `CC(O)CN(CC(C)O)CC1CC2C=CC1C2` (centres unmarked) [CBK261896], the viability at 28.5 h, 10 µM was determined as 90.4%. Take `O=C(Nc1ccnn1Cc1cccs1)N1Cc2cnn(CCO)c2C1` [CBK307150]: the viability at 28.5 h, 10 µM is 89.7%. For `CC(=O)Nc1ccc(NC(=O)CN(C2CCCCC2)S(C)(=O)=O)cc1` [CBK266755] the value was 93.3%. On to `Nc1ncc(-c2ccc(C(=O)N3CCOCC3)cc2)cc1C(=O)NCc1ccc(S(N)(=O)=O)cc1` [CBK158597], for which the viability at 28.5 h, 10 µM is 105%. As for `COCCNc1nc(-c2cccc(C(N)=O)c2)cnc1N` [CBK063901], the viability at 28.5 h, 10 µM was 115%. For `Cc1cc(C(=O)N2CCC(C(=O)c3ccnn3C)CC2)sc1C` [CBK284428] the value was 89.3%; for `NC(=O)c1c(NC(=O)c2ccc(COc3ccc4ccccc4c3)o2)sc2c1CCCC2` [CBK265871], 88.5%; for `CCOc1ccc(S(=O)(=O)Nc2ccc(C(=O)O)c(O)c2)cc1` [CBK299837], 94.2%. Turning to `O=C(NCc1cccc(C(F)(F)F)c1)N1CCN(c2cc(C(F)(F)F)ccn2)CC1` [CBK156435], the viability at 28.5 h, 10 µM was 102%. With `CCOC(=O)C1=C(CSc2nccn2C)NC(=O)NC1c1ccc2c(c1)OCO2` (centres unmarked) [CBK268746] the figure was 85.5%; with `O=C(CN1CCCC1=O)N1CCN(C(=O)c2ccc(Br)o2)CC1` [CBK034530], 90.8%. In the case of `CSCCC(C(=O)O)N1C(=O)C(=Cc2ccc(-c3cccc(Cl)c3)o2)SC1=S` (centres unmarked) [CBK296982], the viability at 28.5 h, 10 µM came to 99.3%. For `Cc1cc(=O)n2c(C(=O)Nc3ccc(C(=O)O)cc3)c(C(=O)Nc3cccc(C)c3C)sc2n1` [CBK297547] the value was 89.5%. For `O=S(=O)(Nc1nncs1)c1ccccc1` [CBK045489] the value was 86.7%; for `CC(C)(C)CCNCCN1CCOCC1` [CBK001895], 92.2%. On to `O=S(=O)(Cc1cc(Cl)ccc1F)N1CCN(CCO)CC1` [CBK306385], for which the viability at 28.5 h, 10 µM is 80%. With `NC1=NNC2=C(c3ccc(Cl)cc3Cl)NNN12` [CBK093660] the figure was 86.4%; with `Cc1n[nH]c(C)c1CNC(=O)CCc1ccc(Cl)cc1` [CBK283185], 95%. With `Cc1nnc(CN(C)C2CCN(CCc3cccs3)C2)n1C` (centres unmarked) [CBK305126] the figure was 97.8%; with `OCCOc1ncnc2ccccc12` [CBK001412], 107%. With `Cc1ccc(C(C)C)c(OCc2ccc(C(=O)O)o2)c1` [CBK078089] the figure was 108%; with `CNC(=O)c1sc2ccccc2c1C1CCN(Cc2ccc(Oc3ncccn3)cc2)C1` (centres unmarked) [CBK285881], 85.9%; with `CCCn1cc(CNC(=O)c2cccc(S(=O)(=O)N3CCCC3)c2)cn1` [CBK307095], 78.5%. For `Cn1c(=O)n(C)c2cc(CNCc3ccccn3)ccc21` [CBK288118], the viability at 28.5 h, 10 µM is 95.4%. For `O=C(c1[nH]nc(O)c1Cc1c(Cl)cccc1Cl)N1CCOCC1` [CBK107228] the value was 101%. Take `O=C1N=C(NC2CCCCCC2)SC1CCNC(=O)N1CCOCC1` (centres unmarked) [CBK067687]: the viability at 28.5 h, 10 µM came out at 110%. For `CN1CCC(N2CCN(C(=O)c3cnc(-c4ccccn4)nc3C(F)(F)F)CC2)CC1` [CBK149089] the value was 107%; for `CN(Cc1ccccc1)Cc1nc2c([nH]1)c(=O)[nH]c(=O)n2C` [CBK269442], 106%. With `Oc1ccc(-c2oncc2-c2ccccc2)c(O)c1` [CBK288228] the figure was 96.2%; with `CC(C)[C@H](CO)Nc1nccnc1-c1ccccc1CO` [CBK037408], 98.2%; with `O=C(Cc1csc(-c2ccc(Cl)cc2)n1)NCCN1CCCC1` [CBK107306], 90%. As to `COc1ccccc1CCNC(=O)N1CCC(Oc2cccnc2)CC1` [CBK307615], the viability at 28.5 h, 10 µM worked out at 106%.

Regarding `N#Cc1c(N)nc(SCC(=O)O)c(C#N)c1-c1ccc(O)cc1` [CBK261270], the viability at 28.5 h, 10 µM was determined as 98%.

For `O=C(Nc1ccccc1)c1ccc(S(=O)(=O)N2CCC(C(=O)O)CC2)cc1` [CBK267806], the viability at 28.5 h, 10 µM stood at 89.7%. Regarding `COc1ccc(NC(=O)Nc2nn(Cc3c(F)cccc3Cl)cc2Cl)cc1OC` [CBK267019], the viability at 28.5 h, 10 µM stood at 89.3%.

Regarding `CCc1noc(CN2CCN(c3ccc(C(=O)OC)cc3)CC2C)n1` (centres unmarked) [CBK306154], the viability at 28.5 h, 10 µM was determined as 86.4%. For `Cc1cc(NS(=O)(=O)c2ccc(F)cc2)n(C)n1` [CBK051021] the value was 108%. For `COC(=O)c1ccccc1NC(=O)COc1ccc(Cl)c2cccnc12` [CBK266037] the value was 104%; for `COc1ccc(-c2cc(C(=O)NC(C)c3ccccc3)c3cc(C(C)C)ccc3n2)cc1` (centres unmarked) [CBK294466], 101%; for `COc1ccc(OC)c2c1cc(C(=O)NC[C@H]1CC[C@H](C(=O)O)CC1)n2C` [CBK286636], 86.1%. With `Cc1cccc2c1CC(=O)NC21CCN(Cc2ccccc2)CC1` [CBK039819] the figure was 87%. Consider `Cc1n[nH]c(C)c1CCC(=O)N/N=C/c1ccc(O)cc1` [CBK262927], for which the viability at 28.5 h, 10 µM is 109%.

Regarding `NNC(=O)c1c(NC(=O)c2ccccc2)sc2c1CCC2` [CBK262516], the viability at 28.5 h, 10 µM was determined as 104%.

As for `COc1ccc(OC)c(C2C(C(=O)c3ccc(C)cc3)=C(O)C(=O)N2Cc2cccnc2)c1` (centres unmarked) [CBK264492], the viability at 28.5 h, 10 µM was determined as 113%. With `CCc1nc2ccc(C(=O)NCCN3CCNC3=O)cn2c1N(CCN(C)C)CC1CC1` [CBK145469], the viability at 28.5 h, 10 µM was 89.2%. With `CC(=O)NS(=O)(=O)c1ccc(-c2ccc(/C=C(/C#N)c3nc4ccc(C)cc4[nH]3)o2)cc1` [CBK264771] the figure was 109%.

For `CCOc1ccccc1NC(=O)c1ccc(CS(=O)(=O)c2ccc(C)cc2)cc1` [CBK268572], the viability at 28.5 h, 10 µM worked out at 95.1%.

With `COc1ccc(C=O)cc1CSc1nc2ccccc2[nH]1` [CBK266209], the viability at 28.5 h, 10 µM is 94.7%. With `OCCN(CCO)c1cncc(-c2ccc(Cl)cc2)n1` [CBK065748] the figure was 95.2%; with `CSCCCNC(=O)c1ccc(-c2ccc(OC(F)(F)F)cc2)nc1` [CBK156216], 95%; with `O=C(c1ccc(OC(F)(F)F)cc1)N1CCC2(CCN(C(=O)c3cc(F)c(F)cc3F)C2)C1` (centres unmarked) [CBK131384], 108%. For `CC1(C)SC(c2ccc(F)cc2)N[C@H]1C(=O)O` (some centres unmarked) [CBK025917] the value was 91.4%; for `Cc1nccn1CCC(=O)NC(c1ccncc1)c1cccs1` (centres unmarked) [CBK281440], 90.6%. With `CN(c1ccccc1)C1CCN(c2nc3c(cnn3C)c(=O)[nH]2)CC1` [CBK305215] the figure was 96.3%.

Regarding `CCCN1CCCN(c2ccc(-n3ccc(C)n3)nn2)CC1` [CBK306304], the viability at 28.5 h, 10 µM was determined as 107%. With `CN(C)C(=S)Oc1ccc2[nH]c3c(c2c1)CCNC31CCN(CCOc2ccccc2)C1` (centres unmarked) [CBK105748] the figure was 74.8%; with `CC1CCc2c(sc(NC(=O)c3cc(-c4ccccn4)nc4c(Cl)cccc34)c2C(N)=O)C1` (centres unmarked) [CBK267744], 94.1%; with `c1ccc(-c2nnc3sc(-c4ccccn4)nn23)cc1` [CBK267344], 96.2%. In the case of `COc1cc(NC(=O)CC2NC3CCCCC3NC2=O)cc(OC)c1OC` (centres unmarked) [CBK270012], the viability at 28.5 h, 10 µM came to 84.5%. With `COc1cc(NC(=O)c2cccnc2)c(Cl)cc1NC(=O)c1ccc(Cl)cc1` [CBK033522] the figure was 98.2%; with `Oc1ccc(/C=N/Nc2nncc(-c3ccccc3)n2)c(O)c1O` [CBK262492], 80.6%. `O=C(CC1CCCCC1)N1CCN(c2ncccn2)CC1` [CBK144529]: the viability at 28.5 h, 10 µM is 102%. As for `COc1cccc(CCNC(=O)NC(=O)C2CCN(S(C)(=O)=O)CC2)c1` [CBK034860], the viability at 28.5 h, 10 µM is 99%. For `Cc1ccc2oc(C(=O)N(C)Cc3c(C)nn(C)c3C)c(C)c2c1` [CBK281631] the value was 80.9%; for `COc1ccc(-c2nc(Nc3cccc(C(F)(F)F)c3)sc2CC(=O)O)cc1OC` [CBK131693], 97.9%.

As for `CCc1cc(S(=O)(=O)NC2CC(C)(C)NC(C)(C)C2)ccc1OC` [CBK270097], the viability at 28.5 h, 10 µM came out at 92%. On to `CCC(C)(C)c1ccc(S(=O)(=O)N2CCCN(Cc3cn(C)c4ccccc34)CC2)cc1` [CBK062871], for which the viability at 28.5 h, 10 µM is 91.2%. For `Cc1c(NC(=O)CSc2nnc3c4ccccc4n(C(C)C)c3n2)c(=O)n(-c2ccccc2)n1C` [CBK263916] the value was 105%; for `Cc1cccc(OCc2nnc(SCC(=O)NC3CCCCC3)o2)c1` [CBK264652], 96.3%; for `O=C(CSc1ccccc1)NCc1ccncc1` [CBK058023], 96.7%. With `Cc1ccccc1-c1ccc(C(=O)N2CCN(C)CC2)c(NCc2cccnc2)n1` [CBK076125] the figure was 93.2%; with `COc1cc(/C=N/NC(=O)c2ccccn2)ccc1OC(=O)c1cccc2ccccc12` [CBK262110], 94.4%; with `O=C(O)CNS(=O)(=O)c1ccc(-c2ccccc2)cc1` [CBK034457], 98.9%. With `O=C(c1cc[nH]n1)N1CCC(c2cc3ccccc3cn2)CC1` [CBK284892] the figure was 91.7%; with `O=C(COC(=O)c1ccccc1NC(=O)c1ccccc1)c1ccc2ccccc2c1` [CBK265491], 94.9%. As to `Cc1cc(=O)c2ccccc2n1CC(=O)N1CCC2(CCOCC2)CC1` [CBK306869], the viability at 28.5 h, 10 µM was found to be 94.7%. In the case of `COc1ccc(-c2noc(CN(C(=O)Cc3ccc(C)cc3)C(C)C)n2)cc1` [CBK269774], the viability at 28.5 h, 10 µM was 89.6%. With `CC(=O)Nc1ccc(CCOc2nccnc2-c2ccc(C)cc2C)cc1` [CBK106985] the figure was 96.7%.

Values taken from PMC12040169 (PLOS Biology, 2025).
